Results published in US20230085307A1, “PYRIDAZINONE COMPOUND AND HERBICIDE” (NISSAN CHEMICAL CORPORATION, priority 2019, published 2023).

Key:
barnyard grass [1] = assay: Test Example 3: herbicidal effect by foliage application, Wagner pot (Table 18, symbol H); assay type: in vivo, barnyard grass (Echinochloa crus-galli); settings: amount of applied herbicide 320 g/ha
Procedure, shortened: (§1)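 Plants were sown in alluvial soil held under 0.1–0.5 cm standing water and grown 14 days in a greenhouse at 25–30 °C. An emulsifiable formulation, water-diluted to the set dose, was then sprayed onto the foliage, and effects were scored three weeks later using previously defined criteria.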

Chinese sprangletop = assay: Test Example 3: herbicidal effect by foliage application, Wagner pot (Table 18, symbol D); assay type: in vivo, chinese sprangletop (Leptochloa chinensis); settings: amount of applied herbicide 320 g/ha
Procedure, shortened: as §1

rice flat sedge = assay: Test Example 3: herbicidal effect by foliage application, Wagner pot (Table 18, symbol E); assay type: in vivo, rice flat sedge (Cyperus iria); settings: amount of applied herbicide 320 g/ha
Procedure, shortened: as §1

southern crabgrass [2] = assay: Test Example 4: herbicidal effect by soil treatment (Table 19, symbol F); assay type: in vivo, southern crabgrass (Digitaria ciliaris); settings: amount of applied herbicide 320 g/ha
Procedure, shortened: (§2)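 Applied as a water-diluted emulsion, the compound was sprayed onto soil covering newly sown seeds. Evaluation came three weeks after application, in a greenhouse held at 25° C. to 30° C.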

green foxtail [3] = assay: Test Example 4: herbicidal effect by soil treatment (Table 19, symbol G); assay type: in vivo, green foxtail (Setaria viridis); settings: amount of applied herbicide 320 g/ha
Procedure, shortened: as §2

barnyard grass [4] = assay: Test Example 4: herbicidal effect by soil treatment (Table 19, symbol H); assay type: in vivo, barnyard grass (Echinochloa crus-galli); settings: amount of applied herbicide 320 g/ha
Procedure, shortened: as §2

wild oat [5] = assay: Test Example 4: herbicidal effect by soil treatment (Table 19, symbol I); assay type: in vivo, wild oat (Avena fatua); settings: amount of applied herbicide 320 g/ha
Procedure, shortened: as §2

blackgrass [6] = assay: Test Example 4: herbicidal effect by soil treatment (Table 19, symbol J); assay type: in vivo, blackgrass (Alopecurus myosuroides); settings: amount of applied herbicide 320 g/ha
Procedure, shortened: as §2

Italian ryegrass [7] = assay: Test Example 4: herbicidal effect by soil treatment (Table 19, symbol K); assay type: in vivo, Italian ryegrass (Lolium multiflorum); settings: amount of applied herbicide 320 g/ha
Procedure, shortened: as §2

windgrass [8] = assay: Test Example 4: herbicidal effect by soil treatment (Table 19, symbol L); assay type: in vivo, windgrass (Apera spica-venti); settings: amount of applied herbicide 320 g/ha
Procedure, shortened: as §2

velvetleaf [9] = assay: Test Example 4: herbicidal effect by soil treatment (Table 19, symbol M); assay type: in vivo, velvetleaf (Abutilon theophrasti); settings: amount of applied herbicide 320 g/ha
Procedure, shortened: as §2

redroot pigweed [10] = assay: Test Example 4: herbicidal effect by soil treatment (Table 19, symbol N); assay type: in vivo, redroot pigweed (Amaranthus retroflexus); settings: amount of applied herbicide 320 g/ha
Procedure, shortened: as §2

lambsquarters [11] = assay: Test Example 4: herbicidal effect by soil treatment (Table 19, symbol O); assay type: in vivo, lambsquarters (Chenopodium album); settings: amount of applied herbicide 320 g/ha
Procedure, shortened: as §2

chickweed [12] = assay: Test Example 4: herbicidal effect by soil treatment (Table 19, symbol P); assay type: in vivo, common chickweed (Stellaria media); settings: amount of applied herbicide 320 g/ha
Procedure, shortened: as §2

persian speedwell [13] = assay: Test Example 4: herbicidal effect by soil treatment (Table 19, symbol R); assay type: in vivo, Persian speedwell (Veronica persica); settings: amount of applied herbicide 320 g/ha
Procedure, shortened: as §2

southern crabgrass [14] = assay: Test Example 5: herbicidal effect by foliage application, plastic box (Table 20, symbol F); assay type: in vivo, southern crabgrass (Digitaria ciliaris); settings: foliage application, 320 g/ha, evaluated three weeks after application
Procedure, shortened: (§3)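 Sow seeds spot-wise in sterilized diluvial soil; cover with ~1.5 cm soil. Grow 14 days in greenhouse, 25° C. to 30° C. Spray foliage with emulsion diluted to predetermined amount. Rate effect after 3 weeks.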

green foxtail [15] = assay: Test Example 5: herbicidal effect by foliage application, plastic box (Table 20, symbol G); assay type: in vivo, green foxtail (Setaria viridis); settings: foliage application, 320 g/ha, evaluated three weeks after application
Procedure, shortened: as §3

barnyard grass [16] = assay: Test Example 5: herbicidal effect by foliage application, plastic box (Table 20, symbol H); assay type: in vivo, barnyard grass (Echinochloa crus-galli); settings: foliage application, 320 g/ha, evaluated three weeks after application
Procedure, shortened: as §3

wild oat [17] = assay: Test Example 5: herbicidal effect by foliage application, plastic box (Table 20, symbol I); assay type: in vivo, wild oat (Avena fatua); settings: foliage application, 320 g/ha, evaluated three weeks after application
Procedure, shortened: as §3

blackgrass [18] = assay: Test Example 5: herbicidal effect by foliage application, plastic box (Table 20, symbol J); assay type: in vivo, blackgrass (Alopecurus myosuroides); settings: foliage application, 320 g/ha, evaluated three weeks after application
Procedure, shortened: as §3

Italian ryegrass [19] = assay: Test Example 5: herbicidal effect by foliage application, plastic box (Table 20, symbol K); assay type: in vivo, Italian ryegrass (Lolium multiflorum); settings: foliage application, 320 g/ha, evaluated three weeks after application
Procedure, shortened: as §3

windgrass [20] = assay: Test Example 5: herbicidal effect by foliage application, plastic box (Table 20, symbol L); assay type: in vivo, windgrass (Apera spica-venti); settings: foliage application, 320 g/ha, evaluated three weeks after application
Procedure, shortened: as §3

velvetleaf [21] = assay: Test Example 5: herbicidal effect by foliage application, plastic box (Table 20, symbol M); assay type: in vivo, velvetleaf (Abutilon theophrasti); settings: foliage application, 320 g/ha, evaluated three weeks after application
Procedure, shortened: as §3

redroot pigweed [22] = assay: Test Example 5: herbicidal effect by foliage application, plastic box (Table 20, symbol N); assay type: in vivo, redroot pigweed (Amaranthus retroflexus); settings: foliage application, 320 g/ha, evaluated three weeks after application
Procedure, shortened: as §3

lambsquarters [23] = assay: Test Example 5: herbicidal effect by foliage application, plastic box (Table 20, symbol O); assay type: in vivo, lambsquarters (Chenopodium album); settings: foliage application, 320 g/ha, evaluated three weeks after application
Procedure, shortened: as §3

chickweed [24] = assay: Test Example 5: herbicidal effect by foliage application, plastic box (Table 20, symbol P); assay type: in vivo, common chickweed (Stellaria media); settings: foliage application, 320 g/ha, evaluated three weeks after application
Procedure, shortened: as §3

persian speedwell [25] = assay: Test Example 5: herbicidal effect by foliage application, plastic box (Table 20, symbol R); assay type: in vivo, Persian speedwell (Veronica persica); settings: foliage application, 320 g/ha, evaluated three weeks after application
Procedure, shortened: as §3

SMILES: CCCC(=O)Oc1c(C)nn(C)c(=O)c1-c1c(-c2ccccc2Cl)sc2ccc(F)cc12 [2-204]
- herbicidal effect on H: barnyard grass (barnyard grass [1]): 4 (Herbicidal rate of 70% or more and less than 90%)
- herbicidal effect on D: Chinese sprangletop (Chinese sprangletop): 3 (Herbicidal rate of 40% or more and less than 70%)
- herbicidal effect on E: rice flat sedge (rice flat sedge): 3 (Herbicidal rate of 40% or more and less than 70%)
- F: southern crabgrass, herbicidal effect rating (southern crabgrass [2]): 0 (Herbicidal rate of 5% or less (almost no effect))
- G: green foxtail, herbicidal effect rating (green foxtail [3]): 0 (Herbicidal rate of 5% or less (almost no effect))
- H: barnyard grass, herbicidal effect rating (barnyard grass [4]): 0 (Herbicidal rate of 5% or less (almost no effect))
- I: wild oat, herbicidal effect rating (wild oat [5]): 0 (Herbicidal rate of 5% or less (almost no effect))
- J: blackgrass, herbicidal effect rating (blackgrass [6]): 0 (Herbicidal rate of 5% or less (almost no effect))
- K: Italian ryegrass, herbicidal effect rating (Italian ryegrass [7]): 0 (Herbicidal rate of 5% or less (almost no effect))
- L: windgrass, herbicidal effect rating (windgrass [8]): 0 (Herbicidal rate of 5% or less (almost no effect))
- M: velvetleaf, herbicidal effect rating (velvetleaf [9]): 0 (Herbicidal rate of 5% or less (almost no effect))
- N: redroot pigweed, herbicidal effect rating (redroot pigweed [10]): 2 (Herbicidal rate of 20% or more and less than 40%)
- O: lambsquarters, herbicidal effect rating (lambsquarters [11]): 0 (Herbicidal rate of 5% or less (almost no effect))
- P: chickweed, herbicidal effect rating (chickweed [12]): 3 (Herbicidal rate of 40% or more and less than 70%)
- R: persian speedwell, herbicidal effect rating (persian speedwell [13]): 3 (Herbicidal rate of 40% or more and less than 70%)
- herbicidal effect on F: southern crabgrass (criteria 0-5) (southern crabgrass [14]): 0 (Herbicidal rate of 5% or less (almost no effect))
- herbicidal effect on G: green foxtail (criteria 0-5) (green foxtail [15]): 5 (Herbicidal rate of 90% or more (almost completely withered))
- herbicidal effect on H: barnyard grass (criteria 0-5) (barnyard grass [16]): 0 (Herbicidal rate of 5% or less (almost no effect))
- herbicidal effect on I: wild oat (criteria 0-5) (wild oat [17]): 3 (Herbicidal rate of 40% or more and less than 70%)
- herbicidal effect on J: blackgrass (criteria 0-5) (blackgrass [18]): 0 (Herbicidal rate of 5% or less (almost no effect))
- herbicidal effect on K: Italian ryegrass (criteria 0-5) (Italian ryegrass [19]): 3 (Herbicidal rate of 40% or more and less than 70%)
- herbicidal effect on L: windgrass (criteria 0-5) (windgrass [20]): 3 (Herbicidal rate of 40% or more and less than 70%)
- herbicidal effect on M: velvetleaf (criteria 0-5) (velvetleaf [21]): 4 (Herbicidal rate of 70% or more and less than 90%)
- herbicidal effect on N: redroot pigweed (criteria 0-5) (redroot pigweed [22]): 5 (Herbicidal rate of 90% or more (almost completely withered))
- herbicidal effect on O: lambsquarters (criteria 0-5) (lambsquarters [23]): 3 (Herbicidal rate of 40% or more and less than 70%)
- herbicidal effect on P: chickweed (criteria 0-5) (chickweed [24]): 5 (Herbicidal rate of 90% or more (almost completely withered))
- herbicidal effect on R: persian speedwell (criteria 0-5) (persian speedwell [25]): 5 (Herbicidal rate of 90% or more (almost completely withered))
